Measured values reported in patent publication US12702660B2, “Method for treating cancer with an oral dosage form of an estrogen receptor-alpha inhibitor” (Eisai R&D Management Co., Ltd., priority 2019, dated 2026).

Tests used:
[1] = test system: ER target gene expression; test: Pharmacodynamics: ER target gene expression; format: in vivo, human; details: patients, 100 to 450 mg/day
Procedure: (§1) Methods were used to analyze whether H3B-6545 inactivates both wild-type and mutant ERα by targeting cysteine 530 and enforcing a unique antagonist conformation. Methods: Women with locally advanced or metastatic HR+BC are treated (tx) with H3B-6545 drug product administered once daily orally by capsule over a 28 day cycle after progression on at least one hormonal therapy and at least one additional therapy/regimen. Dose escalation uses a 3+3 design with the option to backfill previously cleared doses and allows for intrapatient dose escalation. This example explored the safety, pharmacokinetics and pharmacodynamics of H3B-6545 in women with HR+BC to identify a recommended subsequent dose for testing.

[2] = test system: locally advanced or metastatic ER+HER2−BC; test: Tumor response and progression-free survival, phase 1 dose escalation; format: in vivo, human
Text: Example 3 reports Clinical and Genomics Analysis of a single trial. The Study Population in Example 3 was as follows: • Women ≥18 years old with locally advanced or metastatic ER+HER2−BC. • Progression on at least one hormonal therapy and at least one additional therapy/regimen; no maximum number of prior lines of therapy. • ECOG performance status of 0 or 1. • Adequate bone marrow and organ function. • Excluded if had bone-only disease or inflammatory BC.
as §1
• H3B-6545 administered once daily orally over a 28 day cycle. • Dose escalation using a standard 3+3 study design using dose cohorts of 100, 200, 300, 450, and 600 mg QD. • Patients allowed to backfill previously cleared doses. • Intra-patient dose escalation allowed after completion of Cycle 3. Results (as of Apr. 20, 2019) Patient Population: • 46 patients were treated with H3B-6545 at doses of 100 to 600 mg QD. • 42 (91.3%) patients received a prior CDK4/6 inhibitor and 32 (69.6%) prior fulvestrant. • 30 (65.2%) patients received ≥3 prior anti-cancer therapy lines in the advanced/metastatic setting.

[3] = Total (N = 46), 100 to 600 mg QD
[4] = as of Apr. 20, 2019, 46 patients, 100 to 600 mg QD

With `CN(C)C(=O)/C=C/CNCCOc1ccc(/C(=C(/CC(F)(F)F)c2ccccc2)c2ccc3[nH]nc(F)c3c2)cn1` [H3B-6545, (E)-N,N-dimethyl-4-[2-[5-[(Z)-4,4,4-trifluoro-1-(3-fluoro-1H-indazol-5-yl)-2-phenylbut-1-enyl]pyridin-2-yl]oxyethylamino]but-2-enamide] the “ER target gene expression” value [1] was “inhibited ER target gene expression”, the “Best Overall Response: Complete Response (CR)” value (shortened to “Best Overall Response … (CR)”) ([2]; 100 mg QD (N = 6)) was 0 (0.0) n (%) and the “Best Overall Response: Not Evaluable (NE)” value ([2]; 100 mg QD (N = 6)) was 0 (0.0) n (%). The “Best Overall Response: Partial Response (PR)” value (from here on “Best Overall Response … (PR)”) ([2]; 100 mg QD (N = 6)) was 1 (16.7) n (%), the “Best Overall Response: Progressive Disease (PD)” value (from here on “Best Overall Response … (PD)”) ([2]; 100 mg QD (N = 6)) was 0 (0.0) n (%) and the “Best Overall Response: Unknown (UNK)” value ([2]; 100 mg QD (N = 6)) was 0 (0.0) n (%). The “Objective Responses (CR + PR)” value ([2]; 100 mg QD (N = 6)) was 1 (16.7) n(%), the “Progressive-Free Survival, Median (95% CI)” value ([2]; 100 mg QD (N = 6)) was 9.3 (7.4, NE) months and the “Progressive-Free Survival, Q1 (95% CI)” value ([2]; 100 mg QD (N = 6)) was 7.5 (7.4, 11.0) months. The “Best Overall Response … (CR)” value ([2]; 200 mg QD (N = 12)) was 0 (0.0) n (%), the “Best Overall Response: Not Evaluable (NE)” value ([2]; 200 mg QD (N = 12)) was 4 (33.3) n (%) and the “Best Overall Response … (PR)” value ([2]; 200 mg QD (N = 12)) was 1 (8.3) n (%). For the same molecule, the “Best Overall Response … (PD)” value ([2]; 200 mg QD (N = 12)) was 2 (16.7) n (%), the “Best Overall Response: Unknown (UNK)” value ([2]; 200 mg QD (N = 12)) was 1 (8.3) n (%) and the “Objective Responses (CR + PR)” value ([2]; 200 mg QD (N = 12)) was 1 (8.3) n(%). For the same molecule, the “Progressive-Free Survival, Median (95% CI)” value ([2]; 200 mg QD (N = 12)) was 5.5 (0.9, NE) months, the “Progressive-Free Survival, Q1 (95% CI)” value ([2]; 200 mg QD (N = 12)) was 1.5 (0.9, 5.5) months and the “Best Overall Response … (CR)” value ([2]; 300 mg QD (N = 11)) was 0 (0.0) n (%). The “Best Overall Response: Not Evaluable (NE)” value ([2]; 300 mg QD (N = 11)) was 3 (27.3) n (%), the “Best Overall Response … (PR)” value ([2]; 300 mg QD (N = 11)) was 0 (0.0) n (%) and the “Best Overall Response … (PD)” value ([2]; 300 mg QD (N = 11)) was 5 (45.5) n (%). For the same molecule, the “Best Overall Response: Unknown (UNK)” value ([2]; 300 mg QD (N = 11)) was 0 (0.0) n (%), the “Objective Responses (CR + PR)” value ([2]; 300 mg QD (N = 11)) was 0 (0.0) n(%) and the “Progressive-Free Survival, Median (95% CI)” value ([2]; 300 mg QD (N = 11)) was 1.8 (1.6, 5.4) months. The “Progressive-Free Survival, Q1 (95% CI)” value ([2]; 300 mg QD (N = 11)) was 1.8 (1.6, 1.8) months, the “Progressive-Free Survival, Q3 (95% CI)” value ([2]; 300 mg QD (N = 11)) was 5.4 (1.8, NE) months and the “Best Overall Response … (CR)” value ([2]; 450 mg QD (N = 10)) was 0 (0.0) n (%). The “Best Overall Response: Not Evaluable (NE)” value ([2]; 450 mg QD (N = 10)) was 3 (30.0) n (%), the “Best Overall Response … (PR)” value ([2]; 450 mg QD (N = 10)) was 1 (10.0) n (%) and the “Best Overall Response … (PD)” value ([2]; 450 mg QD (N = 10)) was 3 (30.0) n (%). For the same molecule, the “Best Overall Response: Unknown (UNK)” value ([2]; 450 mg QD (N = 10)) was 0 (0.0) n (%), the “Objective Responses (CR + PR)” value ([2]; 450 mg QD (N = 10)) was 1 (10.0) n(%) and the “Progressive-Free Survival, Median (95% CI)” value ([2]; 450 mg QD (N = 10)) was 7.2 (1.8, 7.3) months. The “Progressive-Free Survival, Q1 (95% CI)” value ([2]; 450 mg QD (N = 10)) was 1.9 (1.8, 7.2) months, the “Progressive-Free Survival, Q3 (95% CI)” value ([2]; 450 mg QD (N = 10)) was 7.3 (2.1, 7.5) months and the “Best Overall Response … (CR)” value ([2]; 600 mg QD (N = 7)) was 0 (0.0) n (%). The “Best Overall Response: Not Evaluable (NE)” value ([2]; 600 mg QD (N = 7)) was 4 (57.1) n (%), the “Best Overall Response … (PR)” value ([2]; 600 mg QD (N = 7)) was 0 (0.0) n (%) and the “Best Overall Response … (PD)” value ([2]; 600 mg QD (N = 7)) was 1 (14.3) n (%). For the same molecule, the “Best Overall Response: Unknown (UNK)” value ([2]; 600 mg QD (N = 7)) was 0 (0.0) n (%), the “Objective Responses (CR + PR)” value ([2]; 600 mg QD (N = 7)) was 0 (0.0) n(%) and the “Best Overall Response … (CR)” value [2, 3] was 0 (0.0) n (%). The “Best Overall Response: Not Evaluable (NE)” value [2, 3] was 14 (30.4) n (%), the “Best Overall Response … (PR)” value [2, 3] was 3 (6.5) n (%) and the “Best Overall Response … (PD)” value [2, 3] was 11 (23.9) n (%). The “Best Overall Response: Unknown (UNK)” value [2, 3] was 1 (2.2) n (%), the “Objective Responses (CR + PR)” value [2, 3] was 3 (6.5) n(%) and the “Progressive-Free Survival, Median (95% CI)” value [2, 3] was 7.2 (1.9, 7.4) months. The “Progressive-Free Survival, Q1 (95% CI)” value [2, 3] was 1.8 (1.6, 2.1) months, the “Progressive-Free Survival, Q3 (95% CI)” value [2, 3] was 7.5 (7.3, NE) months and the “Stable disease, patients” value ([2]; as of 10 Dec. 2018, 32 patients, 100 to 450 mg/day) was 15 patients. For the same molecule, the “At least 6 months of therapy completed, % of patients” value [2, 4] was 30.4%, the “At least 6 months of therapy completed, patients” value [2, 4] was 14 patients and the “Confirmed partial response, % of patients” value [2, 4] was 6.5%. For the same molecule, the “Confirmed partial response, patients” value [2, 4] was 3 patients, the “Stable disease, % of patients” value [2, 4] was 37.0% and the “Stable disease, patients” value [2, 4] was 17 patients. For the same molecule, the mPFS ([2]; heavily pre-treated, post CDK4/6i setting, 46 patients) was 7.2 months, the “response of case study patient” value ([2]; patient case study, 450 mg QD, after 4 cycles) was “partial response” and the “decrease in the sum of the diameters of all target lesions” value ([2]; patient case study, 450 mg QD, baseline to C3D1) was −27.8%. For the same molecule, the “decrease in the sum of the diameters of all target lesions” value ([2]; patient case study, 450 mg QD, baseline to C7D1) was −35.6%.
